{"source": "ChEMBL document CHEMBL5500403", "about": "“Discovery of a Double-Stapled Short Peptide as a Long-Acting HIV-1 Inactivator with Potential for Oral Bioavailability” (J Med Chem, 2024)", "key": {"[1]": {"system": "Human immunodeficiency virus 1", "assay": "Antiviral activity against T20-resistant HIV-1 NL4-3 harboring […] N38A and N42T mutant assessed as reduction in viral growth by measuring p24 antigen level incubated for 2 hrs by ELISA", "assay_type": "functional, organism-based"}, "[2]": {"system": "Human immunodeficiency virus 1", "assay": "Antiviral activity against HIV-1 Bal-R5 assessed as reduction in viral growth by measuring p24 antigen level incubated for 2 hrs by ELISA", "assay_type": "functional, organism-based", "settings": "Human immunodeficiency virus 1, Bal-R5, 2 h"}, "[3]": {"assay": "Toxicity in BALB/c mouse assessed as histopathological change in liver at 20 mg/kg,iv administration measured after 14 days by hematoxylin and eosin staining based assay", "assay_type": "organism-based", "settings": "in vivo, 336 h, time 14 day"}, "[4]": {"assay": "Volume of distribution at steady state in Sprague-Dawley rat at 10 mg/kg,iv administration measured upto 9 days by LC-MS/MS analysis", "assay_type": "ADME, organism-based", "settings": "in vivo, 216 h, time < 9 day"}, "[5]": {"assay": "Selectivity index, ratio of CC50 for cytotoxicity against human MT2 cells to IC50 for antiviral activity against HIV-1 IIIB infected in human MT2 cells", "assay_type": "toxicity, cell-based", "settings": "read-out: Ratio CC50/IC50"}, "[6]": {"assay": "Biodistribution in Sprague-Dawley rat lymph node assessed as fold increase in AUC at 1 mg/kg,iv administration measured after 12 days by LC-MS/MS analysis", "assay_type": "ADME, organism-based", "settings": "in vivo, 288 h, time 12 day"}, "[7]": {"system": "Human immunodeficiency virus 1", "assay": "Antiviral activity against T20-resistant HIV-1 NL4-3 harboring […] N42T and N43K mutant assessed as reduction in viral growth by measuring p24 antigen level incubated for 2 hrs by ELISA", "assay_type": "functional, organism-based"}, "chymotrypsin": {"biological_target": "chymotrypsin (Homo sapiens, UniProt P17538+P40313+Q6GPI1+Q99895)", "assay": "Proteolytic stability assessed as Chymotrypsin (unknown origin) mediated compound degradation by measuring parent compound remaining incubated for 2 hrs by LC-MS/MS analysis", "assay_type": "ADME, protein assay", "settings": "read-out: Stability"}, "ACH-2 cell line [8]": {"system": "ACH-2 cell line", "assay": "Cytotoxicity against chidamide non-reactivated human ACH-2 cell line infected with latent HIV-1 assessed as reduction in cell viability at 1.25 to 5 uM", "assay_type": "functional, cell-based", "settings": "dose 1.25-5 µM"}, "[9]": {"assay": "Toxicity in Sprague-Dawley rat assessed as histopathological change in liver at 50 mg/kg,iv administration measured after 14 days by hematoxylin and eosin staining based assay", "assay_type": "organism-based", "settings": "in vivo, 336 h, time 14 day"}, "[10]": {"system": "Human immunodeficiency virus 1", "assay": "Antiviral activity against T20-resistant HIV-1 NL4-3 harboring […] V38E and N42S mutant assessed as reduction in viral growth by measuring p24 antigen level incubated for 2 hrs by ELISA", "assay_type": "functional, organism-based"}, "[11]": {"assay": "Stability in rat plasma assessed as parent compound remaining at 1 ug/ml incubated for 1 hr by LC-MS/MS analysis", "assay_type": "ADME, cell-free", "settings": "at 1 µg/mL, read-out: Stability"}, "[12]": {"assay": "AUClast in Sprague-Dawley rat at 1 mg/kg,iv administration measured upto 9 days by LC-MS/MS analysis", "assay_type": "ADME, organism-based", "settings": "in vivo, time < 9 day"}, "[13]": {"system": "Human immunodeficiency virus 1", "assay": "Binding affinity to cytoplasmic LLP1 domain of HIV-1 GP41 assessed as binding constant by isothermal titration calorimetry"}, "proteinase K": {"system": "proteinase K", "assay": "Proteolytic stability assessed as proteinase K (unknown origin) mediated compound degradation by measuring parent compound remaining incubated for 4 hrs by LC-MS/MS analysis", "assay_type": "ADME", "settings": "human, read-out: Stability"}, "[14]": {"assay": "Toxicity in Sprague-Dawley rat assessed as necrosis in kidney at 50 mg/kg,iv administration measured after 14 days by hematoxylin and eosin staining based assay", "assay_type": "organism-based", "settings": "in vivo, 336 h, time 14 day"}, "[15]": {"assay": "Toxicity in Sprague-Dawley rat assessed as necrosis in liver at 50 mg/kg,iv administration measured after 14 days by hematoxylin and eosin staining based assay", "assay_type": "organism-based", "settings": "in vivo, 336 h, time 14 day"}, "[16]": {"system": "Human immunodeficiency virus 1", "assay": "Binding affinity to cytoplasmic LLP1 domain of HIV-1 GP41 assessed as change in enthalpy by isothermal titration calorimetry"}, "[17]": {"system": "Human immunodeficiency virus 1", "assay": "Binding affinity to cytoplasmic LLP1 domain of HIV-1 GP41 by ELISA"}, "[18]": {"assay": "Toxicity in Sprague-Dawley rat assessed as cell degeneration in liver at 50 mg/kg,iv administration measured after 14 days by hematoxylin and eosin staining based assay", "assay_type": "organism-based", "settings": "in vivo, 336 h, time 14 day"}, "[19]": {"assay": "Toxicity in female BALB/c mouse assessed as change in body weight at 20 mg/kg,iv administration measured upto 14 days", "assay_type": "organism-based", "settings": "in vivo, 336 h, time < 14 day"}, "[20]": {"assay": "Toxicity in BALB/c mouse assessed as change in serum ALT level at 100 mg/kg,iv administration measured upto 6 days", "assay_type": "organism-based", "settings": "in vivo, 144 h, time < 6 day"}, "[21]": {"assay": "Plasma protein binding in rat by LC-MS/MS analysis", "assay_type": "ADME, cell-free", "settings": "read-out: PPB (converted)"}, "[22]": {"assay": "Drug concentration in Sprague-Dawley rat plasma at 50 mg/kg,po administrated for 15 hrs by LC-MS/MS analysis", "assay_type": "ADME, organism-based", "settings": "in vivo"}, "[23]": {"assay": "MRT in Sprague-Dawley rat at 10 mg/kg,iv administration measured upto 9 days by LC-MS/MS analysis", "assay_type": "ADME, organism-based", "settings": "in vivo, 216 h, time < 9 day"}, "[24]": {"assay": "Toxicity in Sprague-Dawley rat assessed as neural damage by measuring NeuN positive cell at 50 mg/kg,iv administration measured after 14 days", "assay_type": "organism-based", "settings": "in vivo, 336 h, time 14 day"}, "[25]": {"assay": "Toxicity in male BALB/c mouse assessed as change in body weight at 100 mg/kg,iv administration measured upto 14 days", "assay_type": "organism-based", "settings": "in vivo, 336 h, time < 14 day"}, "[26]": {"assay": "Biodistribution in Sprague-Dawley rat testis assessed as fold increase in AUC at 1 mg/kg,iv administration measured after 12 days by LC-MS/MS analysis", "assay_type": "ADME, organism-based", "settings": "in vivo, 288 h, time 12 day"}, "[27]": {"assay": "Biodistribution in Sprague-Dawley rat brain assessed as fold increase in AUC at 1 mg/kg,iv administration measured after 12 days by LC-MS/MS analysis", "assay_type": "ADME, organism-based", "settings": "in vivo, 288 h, time 12 day"}, "[28]": {"system": "Human immunodeficiency virus 1", "assay": "Antiviral activity against HIV-1 IIIB infected in human MT2 cells assessed as inhibition of viral growth pretreated with virus for 30 mins followed by infection with cells incubated for 72 hrs by ELISA", "assay_type": "functional, organism-based", "settings": "Human immunodeficiency virus 1, IIIB"}, "[29]": {"assay": "Biodistribution in Sprague-Dawley rat brain at 1 mg/kg,iv administration measured upto 12 days by LC-MS/MS analysis", "assay_type": "ADME, organism-based", "settings": "in vivo, 288 h, time < 12 day"}, "[30]": {"assay": "Toxicity in Sprague-Dawley rat assessed as change in body weight at 50 mg/kg,iv administration measured upto 14 days", "assay_type": "organism-based", "settings": "in vivo, 336 h, time < 14 day"}, "[31]": {"assay": "Total clearance in Sprague-Dawley rat at 1 mg/kg,iv administration measured upto 9 days by LC-MS/MS analysis", "assay_type": "ADME, organism-based", "settings": "in vivo, time < 9 day"}, "[32]": {"assay": "Volume of distribution at steady state in Sprague-Dawley rat at 1 mg/kg,iv administration measured upto 9 days by LC-MS/MS analysis", "assay_type": "ADME, organism-based", "settings": "in vivo, time < 9 day, read-out: Vdss"}, "[33]": {"assay": "Stability in rat liver assessed as parent compound remaining at 1 ug/ml incubated for 1 hr by LC-MS/MS analysis", "assay_type": "ADME, tissue-based", "settings": "at 1 µg/mL, read-out: Stability"}, "[34]": {"assay": "Apparent permeability in human Caco-2 cells at 5 uM", "assay_type": "ADME, cell-based"}, "ACH-2 cell line [35]": {"system": "ACH-2 cell line", "assay": "Cytotoxicity against chidamide reactivated human ACH-2 cell line infected with latent HIV-1 assessed as reduction in cell viability at 1.25 to 5 uM", "assay_type": "functional, cell-based", "settings": "dose 1.25-5 µM"}, "[36]": {"assay": "MRT in Sprague-Dawley rat at 1 mg/kg,iv administration measured upto 9 days by LC-MS/MS analysis", "assay_type": "ADME, organism-based", "settings": "in vivo, time < 9 day"}, "[37]": {"assay": "Drug concentration in Sprague-Dawley rat plasma at 50 mg/kg,po administrated for 5 days by LC-MS/MS analysis", "assay_type": "ADME, organism-based", "settings": "in vivo, 120 h, time 5 day"}}, "note": "Active and inactive are the calls of the source. No cut-off for these calls is given here. Bridge positions count the residues as written; N and C are the ends. Square brackets hold non-standard residues; d marks the D form. Peptide text beside a SMILES is read from it. S5 = C=CCCC[C@](C)(N)C(=O)O", "data": [{"molecule": "CC(=O)NCC(=O)N[C@@]1(C)CCC/C=C\\CCC[C@@](C)(C(=O)N[C@@H](Cc2ccc(O)cc2)C(=O)N[C@@H](CC(C)C)C(=O)N[C@@]2(C)CCC/C=C\\CCC[C@@](C)(C(=O)N[C@@H](Cc3ccc(O)cc3)C(=O)N[C@@H](Cc3c[nH]c4ccccc34)C(N)=O)NC(=O)[C@H](CC(C)C)NC(=O)[C@H](CC(C)C)NC(=O)[C@H](CC(N)=O)NC2=O)NC(=O)[C@H](CC(C)C)NC(=O)[C@H](C)NC(=O)[C@H](CCC(=O)O)NC1=O", "note": "(Ac-G[S5]EAL[S5]YL[S5]NLL[S5]YW-NH2; staple (Z) 2-6, 9-13)", "values": [{"measurement": "EC50", "setting": "[1]", "value": 23.1, "unit": "nM"}, {"measurement": "EC50", "setting": "[2]", "value": 36700, "unit": "nM"}, {"measurement": "Activity", "setting": "[3]", "value": "Non-Toxic"}, {"measurement": "Vdss", "setting": "[4]", "value": 3.6489, "unit": "L/kg"}, {"measurement": "selectivity ratio", "setting": "[5]", "value": 216}, {"measurement": "fold change (FC)", "setting": "[6]", "value": 10}, {"measurement": "EC50", "setting": "[7]", "value": 114, "unit": "nM"}, {"measurement": "remaining at 2 h", "setting": "chymotrypsin", "value": "> 56.8", "unit": "%"}, {"measurement": "Activity", "setting": "ACH-2 cell line [8]", "value": "inactive"}, {"measurement": "Activity", "setting": "[9]", "value": "Non-Toxic"}, {"measurement": "EC50", "setting": "[10]", "value": 50.6, "unit": "nM"}, {"measurement": "remaining at 1 h, 1 ug/ml", "setting": "[11]", "value": "> 99", "unit": "%"}, {"measurement": "AUC(0-t) at 216 h", "setting": "[12]", "value": 40400, "unit": "ng·h/mL"}, {"measurement": "K", "setting": "[13]", "value": "2.77 10^5/M"}, {"measurement": "remaining at 4 h", "setting": "proteinase K", "value": 89.6, "unit": "%"}, {"measurement": "Activity", "setting": "[14]", "value": "Non-Toxic"}, {"measurement": "Activity", "setting": "[15]", "value": "Non-Toxic"}, {"measurement": "deltaH", "setting": "[16]", "value": "-2.84 10^4cal/mol"}, {"measurement": "Activity", "setting": "[17]", "value": "Dose-Dependent Effect"}, {"measurement": "Activity", "setting": "[18]", "value": "Non-Toxic"}, {"measurement": "Activity", "setting": "[19]", "value": "Non-Toxic"}, {"measurement": "Activity", "setting": "[20]", "value": "Non-Toxic"}, {"measurement": "fraction unbound", "setting": "[21]", "value": 0.153}, {"measurement": "Drug uptake", "setting": "[22]", "value": "Active"}, {"measurement": "MRT", "setting": "[23]", "value": 89.1, "unit": "h"}, {"measurement": "Activity", "setting": "[24]", "value": "Non-Toxic"}, {"measurement": "Activity", "setting": "[25]", "value": "Non-Toxic"}, {"measurement": "fold change (FC)", "setting": "[26]", "value": 15}, {"measurement": "fold change (FC)", "setting": "[27]", "value": 5}, {"measurement": "IC50", "setting": "[28]", "value": 23.5, "unit": "nM"}, {"measurement": "Drug uptake", "setting": "[29]", "value": "Active"}, {"measurement": "Activity", "setting": "[30]", "value": "Non-Toxic"}, {"measurement": "clearance", "setting": "[31]", "value": 0.31, "unit": "mL/min/kg"}, {"measurement": "Vd", "setting": "[32]", "value": 2.32, "unit": "L/kg"}, {"measurement": "remaining at 1 h, 1 ug/ml", "setting": "[33]", "value": 100, "unit": "%"}, {"measurement": "Papp at 5 µM", "setting": "[34]", "value": "< 0.02", "unit": "×10⁻⁶ cm/s"}, {"measurement": "Activity", "setting": "ACH-2 cell line [35]", "value": "Active"}, {"measurement": "MRT", "setting": "[36]", "value": 71.1, "unit": "h"}, {"measurement": "Drug uptake", "setting": "[37]", "value": "Active"}]}]}
